{"source": "ChEMBL document CHEMBL3232918", "about": "“Core modification of substituted piperidines as novel inhibitors of HDM2-p53 protein-protein interaction” (Bioorg Med Chem Lett, 2014)", "key": {"[1]": {"tested_on": "SJSA-1", "test": "Antiproliferative activity against human SJSA1 cells"}, "[2]": {"test": "Permeability of the compound in human Caco2 cells", "format": "ADME, cell-based", "details": "Caco-2, read-out: permeability"}, "[3]": {"test": "AUC in mouse at 20 mg/kg, iv and 20 mg/kg, po", "format": "ADME, organism-based", "details": "plasma"}, "[4]": {"test": "Oral bioavailability in mouse at 20 mg/kg", "format": "ADME, organism-based", "details": "in vivo"}, "[5]": {"molecular_target": "E3 ubiquitin-protein ligase Mdm2 (Homo sapiens, UniProt Q00987)", "sequence (Q00987 whole entry)": "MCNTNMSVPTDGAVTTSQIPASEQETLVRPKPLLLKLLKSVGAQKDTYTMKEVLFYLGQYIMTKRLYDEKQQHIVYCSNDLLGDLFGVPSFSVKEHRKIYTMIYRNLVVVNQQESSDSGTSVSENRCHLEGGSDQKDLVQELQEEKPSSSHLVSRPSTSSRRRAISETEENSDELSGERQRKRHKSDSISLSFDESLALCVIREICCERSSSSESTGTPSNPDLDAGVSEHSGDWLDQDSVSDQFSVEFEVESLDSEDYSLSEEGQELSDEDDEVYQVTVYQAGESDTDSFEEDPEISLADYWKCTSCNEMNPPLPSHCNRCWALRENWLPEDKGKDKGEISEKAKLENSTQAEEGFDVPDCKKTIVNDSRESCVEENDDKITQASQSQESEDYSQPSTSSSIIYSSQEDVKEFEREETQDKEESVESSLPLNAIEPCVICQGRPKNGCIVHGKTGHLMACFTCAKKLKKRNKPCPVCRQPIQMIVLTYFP", "test": "Binding affinity to HDM2 (unknown origin) by fluorescence polarization peptide displacement assay"}}}
{"smiles": "C=CC[C@H]1N(C(=O)c2cnccc2C(F)(F)F)CCC[C@@]1(Oc1ccc(C(F)(F)F)cc1)C(=O)N1CCN(c2ccccc2OCCOC)CC1", "values": [{"measurement": "IC50", "setting": "[1]", "result": 1, "unit": "µM"}]}
{"smiles": "COc1ccccc1N1CCN(C(=O)[C@]2(Oc3ccc(C(F)(F)F)cc3)CCCN(C(=O)c3cnccc3C(F)(F)F)C2)CC1", "values": [{"measurement": "Papp", "setting": "[2]", "result": 15.8, "unit": "×10⁻⁶ cm/s"}, {"measurement": "AUC", "setting": "[3]", "result": 1.9, "unit": "µM·h"}, {"measurement": "bioavailability", "setting": "[4]", "result": 19, "unit": "%"}, {"measurement": "IC50", "setting": "[1]", "result": 5.5, "unit": "µM"}]}
{"smiles": "COCCOc1ccccc1N1CCN(C(=O)[C@]2(Oc3ccc(C(F)(F)F)cc3)CCCN(C(=O)c3cnccc3C(F)(F)F)C2)CC1", "values": [{"measurement": "Papp", "setting": "[2]", "result": 20.3, "unit": "×10⁻⁶ cm/s"}, {"measurement": "AUC", "setting": "[3]", "result": 1.1, "unit": "µM·h"}, {"measurement": "bioavailability", "setting": "[4]", "result": 32, "unit": "%"}, {"measurement": "IC50", "setting": "[1]", "result": 4.7, "unit": "µM"}]}
{"smiles": "COCCOc1ccccc1N1CCN(C(=O)[C@]2(Oc3ccc(C(F)(F)F)cc3)CC[C@H](c3ccccc3)N(C(=O)c3cnccc3C(F)(F)F)C2)CC1", "values": [{"measurement": "IC50", "setting": "[5]", "result": "> 10", "unit": "µM"}]}
{"smiles": "COc1ccc(C2=N[C@@H](c3ccc(Cl)cc3)[C@@H](c3ccc(Cl)cc3)N2C(=O)N2CCNC(=O)C2)c(OC(C)C)c1", "note": "[NUTLIN-3]", "values": [{"measurement": "Papp", "setting": "[2]", "result": 12.6, "unit": "×10⁻⁶ cm/s"}, {"measurement": "IC50", "setting": "[1]", "result": 1.9, "unit": "µM"}]}
